Seven molecules from PMC9636275 (Nature Communications, 2022) can be followed below.

Series [1] concerns the target T1, YiaC (Escherichia coli, UniProt P37664).
T1 construct: recombinant, pET28a vector, expressed in E. coli BL21 (λDE3), purified on HisPur Ni-NTA resin
Kind of series: Isothermal titration calorimetry (MicroCal PEAQ-ITC) with acyl-CoA (750 uM in syringe) titrated into YiaC (75 uM in cell) at 25.1 °C according to the data sheet; the methods text gives 500 uM, 50 uM and 37 °C. The series is classed as binding. Particulars: n = 3. Here is the method:
(§1) This method was described previously. […] The volume of the first injection was 0.5 μl of 500 μM actyl-CoA (or actylated peptides), and the following 18 injections were 2.0 μl. The binding isotherm was fit with the Origin 8.0 software (OriginLab). Each group had three biological repetitions.
A general note: In ITC the heat of successive injections is recorded.

In series [2] the test system is whole-cell lysates. Kind of series: Whole-cell lysate reaction, lactate to La-CoA. Set-up: species or system E. coli MG1655. Particulars: result in words. As for the experimental part:
This method was described previously. In detail, E. coli MG1655 was cultured in LB medium at 37 °C in shaken flasks overnight and harvested the cells by centrifugation, then added lysate buffer [[…], […] and 5 mM MgCl2, PH 7.0] and broke cells by ultrasound on ice, the supernatant was extracted by high-speed centrifugation as the whole protein lysate. Then measured protein concentration by BCA and adjusted the protein concentration to 2 mg/ml. […] Each reaction was performed three biological repetitions.
(§2) Samples dissolved in water were analyzed by an Orbitrap Exploris 480 (Thermo Scientific) mass spectrometer in positive ESI mode using the settings described previously[65],[66]. […] An Orbitrap Exploris 480 (Thermo Fisher Scientific) was employed for MS analysis. Spray voltage was set to 3.5 kV, funnel RF level at 40, and ion transfer tube temperature at 320 °C. Data were collected by Xcalibur (v.4.0.27.19). The orbitrap mass analyzer was used as the MS1 detector with 120,000 resolution. The normalized AGC target and maximum injection time were set at 70% /standard for MS1. The MS2 detector was used 15,000 resolution. Targeted mass setting is lactyl-CoA: 840.1436, acetyl-CoA: 810.1330 and propionate CoA: 824.1487. […] The relative intensity of acyl-CoA was analyzed by Xcalibur (v.4.0.27.19).

Series [3] deals with YiaC. Kind of series: ITC affinity of recombinant YiaC with acyl-CoA. Particulars: for binding (Bin): result in words. The series is classed as binding, E. coli. As for the experimental part: as §1
For series [4], the system named is PykF. Particulars: in vitro; result in words.
Series [5] relates to E. coli MG1655. Briefly: Growth curve. Type of series: cell-based. Particulars: 37 °C, result in words. As for the experimental part:
As previous described, the strains were cultured in LB medium overnight, then diluted 1:1000 in LB or M9 medium (with 1% glucose or 1% pyruvate) and incubated at 37 °C with 96-well plates, and each strain was added to three wells. The absorbance at 600 nm at initiation was set as a blank and measured every hour using a spectrophotometer. All the growth dynamic curves were drawn using Origin 8.0.

The test system of series [6] is PykF. Particulars: for Relative activity of PykF: intracellular; for intracellular PykF activity: result in words.
The test system of series [7] is PrpE. Briefly: In vitro assay for PrpE activity. Type of series: biochemical, E. coli. Particulars: result in words. Here is the method: (§3) This method was performed as described previously. In detail, the purified Acs or PrpE with a final concentration of 0.3 μM were added in the reaction buffer [50 mM HEPES, 10 mM MgCl2, 2.5 mM ATP, 0.5 mM HSCoA, 3 mM phosphoenolpyruvate, 0.1 mM NADH, 1 U pyruvate kinase, 1.5 U lactate dehydrogenase, 5 U myokinase, 10 mM DTT, and 0.2 mM organic acid substrate (acetate, lactate and propionate), PH 7.5] at 25 °C for 30 min. […] Each reaction was performed three biological repetitions.
as §2

In series [8] the test system is Acs. Briefly: In vitro assay for Acs activity. The series is classed as biochemical, E. coli. Particulars: result in words. As for the experimental part:
as §3, §2

The mark [9] stands for this setting: Fig. 6e, LB medium 37 °C, replicate 1.
Where [10] appears, read: Fig. 6e, LB medium 37 °C, replicate 2.
[11] abbreviates: Fig. 6e, LB medium 37 °C, replicate 3.
[12] abbreviates: Fig. 6g, M9 with 1% glucose, replicate 2.
Setting [13] is: Fig. 6g, M9 with 1% glucose, replicate 3.

Read-outs that look alike come from different tables or passages of the source.

T1 sequence (P37664 whole entry): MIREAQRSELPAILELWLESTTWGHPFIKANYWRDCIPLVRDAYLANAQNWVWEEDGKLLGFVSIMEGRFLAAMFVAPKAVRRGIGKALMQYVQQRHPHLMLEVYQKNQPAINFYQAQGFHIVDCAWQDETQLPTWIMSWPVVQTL

What is called Kd is the concentration at which binding is half-saturated. On to `CC(=O)SCCNC(=O)CCNC(=O)[C@H](O)C(C)(C)COP(=O)(O)OP(=O)(O)OC[C@H]1O[C@@H](n2cnc3c(N)ncnc32)[C@H](O)[C@@H]1OP(=O)(O)O` [acetyl-CoA, acetyl coenzyme A], for which binding in series [1] was put at a Kd of 5.57 µM.

Take `CC(O)C(=O)O` (stereo not drawn) [lactate, reference compound]: the “conversion to lactyl-CoA / lactyl-CoA level” value in series [2] was “could be effectively converted to lactyl-CoA”.

As for `CC(O)C(=O)SCCNC(=O)CCNC(=O)[C@H](O)C(C)(C)COP(=O)(O)OP(=O)(O)OC[C@H]1O[C@@H](n2cnc3c(N)ncnc32)[C@H](O)[C@@H]1OP(=O)(O)O` (stereo partly drawn) [lactyl-CoA, lactyl-coenzyme A], the “conversion to lactyl-CoA / lactyl-CoA level” value in series [2] is on record as “low level”. The Kd turned out to be 6.83 µM in series [3] (cell 50 μM YiaC titrated with 500 μM acyl-CoA, 37 °C (method), three biological repetitions) and 6.83 µM in series [1]. The “binding (Bin)” value in series [3] is listed as “strong binding”; in series [3] (listed as laCoA) it was “Binding”.

As for PykF^K382Q, in series [4], the “enzymatic activity vs wild type” value is “significantly decreased”. Also, the growth result in series [5] (LB medium) is “grew the slowest”; in series [5] (M9 with 1% glucose), “grew slowest”. For the same molecule, the “Relative activity of PykF” value in series [6] (setting [9]) amounted to 0.52; in series [6] (setting [10]), 0.47; in series [6] (setting [11]), 0.58; in series [6] (setting [12]), 0.4941; in series [6] (setting [13]), 0.4204. Besides, the “intracellular PykF activity” value is “lowest activity” in series [6] (LB medium) and “lowest PykF activity” in series [6] (M9 with 1% glucose).

As for “PykF^K382R: PykF mutant, unmodified K mimic; pPykF^K382R = overexpressing strain”, the “enzymatic activity vs wild type” value in series [4] is reported as “increased”. The growth entry is listed as “fastest growth” in series [5] (LB medium) and “grew fastest” in series [5] (M9 with 1% glucose). The “Relative activity of PykF” value in series [6] (setting [9]) is 1.38; in series [6] (setting [10]) it was 1.06; in series [6] (setting [11]) it was 1.54; in series [6] (Fig. 6g, M9 with 1% glucose, replicate 1), 1.27; in series [6] (setting [12]), 1.36; in series [6] (setting [13]), 1.3593. Also, the “intracellular PykF activity” value is listed as “highest activity” in series [6] (LB medium) and “highest PykF activity” in series [6] (M9 with 1% glucose).

B1: PrpE: propionate CoA synthetase (protein, UniProt P77495 1-628, looked up)
Propionate--CoA ligase: MSFSEFYQRSINEPEQFWAEQARRIDWQTPFTQTLDHSNPPFARWFCEGRTNLCHNAIDRWLEKQPEALALIAVSSETEEERTFTFRQLHDEVNAVASMLRSLGVQRGDRVLVYMPMIAEAHITLLACARIGAIHSVVFGGFASHSVAARIDDAKPVLIVSADAGARGGKIIPYKKLLDDAISQAQHQPRHVLLVDRGLAKMARVSGRDVDFASLRHQHIGARVPVAWLESNETSCILYTSGTTGKPKGVQRDVGGYAVALATSMDTIFGGKAGSVFFCASDIGWVVGHSYIVYAPLLAGMATIVYEGLPTWPDCGVWWTIVEKYQVSRMFSAPTAIRVLKKFPTAEIRKHDLSSLEVLYLAGEPLDEPTASWVSNTLDVPVIDNYWQTESGWPIMAIARGLDDRPTRLGSPGVPMYGYNVQLLNEVTGEPCGVNEKGMLVVEGPLPPGCIQTIWGDDGRFVKTYWSLFSRPVYATFDWGIRDADGYHFILGRTDDVINVAGHRLGTREIEESISSHPGVAEVAVVGVKDALKGQVAVAFVIPKESDSLEDRDVAHSQEKAIMALVDSQIGNFGRPAHVWFVSQLPKTRSGKMLRRTIQAICEGRDPGDLTTIDDPASLDQIRQAMEE
For the molecule B1, the “formation of lactyl-CoA from lactate” value in series [7] was “neither Acs nor PrpE could catalyze the formation of lactyl-CoA from lactate”.

B2: Acs: acetyl-CoA synthetase (protein, UniProt P27550 1-652, looked up)
Acetyl-coenzyme A synthetase: MSQIHKHTIPANIADRCLINPQQYEAMYQQSINVPDTFWGEQGKILDWIKPYQKVKNTSFAPGNVSIKWYEDGTLNLAANCLDRHLQENGDRTAIIWEGDDASQSKHISYKELHRDVCRFANTLLELGIKKGDVVAIYMPMVPEAAVAMLACARIGAVHSVIFGGFSPEAVAGRIIDSNSRLVITSDEGVRAGRSIPLKKNVDDALKNPNVTSVEHVVVLKRTGGKIDWQEGRDLWWHDLVEQASDQHQAEEMNAEDPLFILYTSGSTGKPKGVLHTTGGYLVYAALTFKYVFDYHPGDIYWCTADVGWVTGHSYLLYGPLACGATTLMFEGVPNWPTPARMAQVVDKHQVNILYTAPTAIRALMAEGDKAIEGTDRSSLRILGSVGEPINPEAWEWYWKKIGNEKCPVVDTWWQTETGGFMITPLPGATELKAGSATRPFFGVQPALVDNEGNPLEGATEGSLVITDSWPGQARTLFGDHERFEQTYFSTFKNMYFSGDGARRDEDGYYWITGRVDDVLNVSGHRLGTAEIESALVAHPKIAEAAVVGIPHNIKGQAIYAYVTLNHGEEPSPELYAEVRNWVRKEIGPLATPDVLHWTDSLPKTRSGKIMRRILRKIAAGDTSNLGDTSTLADPGVVEKLLEEKQAIAMPS
On to B2, for which the “formation of lactyl-CoA from lactate” value in series [8] was “neither Acs nor PrpE could catalyze the formation of lactyl-CoA from lactate”.
